Source: patent publication US11684672B2, “Combinations of copanlisib with anti-PD-1 antibody” (BAYER PHARMA AKTIENGESELLSCHAFT, priority 2017, dated 2023)
Counter-ions that a name gives are not always drawn.

What was measured:
[1] = system: A20 diffuse large B cell lymphoma; experiment: Anti-tumor efficacy in A20 DLBCL syngeneic mouse model; type: in vivo; conditions: monotherapy; Cpd A 14 mg/kg i.v., Cpd B 200 μg/mouse i.v.; female BALB/c mice; vs vehicle control group
Method: (§1) A20 diffuse large B cell lymphoma and CT26 colorectal cancer cells were maintained in vitro in cell cultural medium supplemented with serum (according to the instructions for each corresponding cell lines) at 37° C. in an atmosphere of 5% CO2 in air. The tumor cells were routinely subcultured twice weekly. The cells in an exponential growth phase were harvested and counted for tumor inoculation. To investigate anti-tumor efficacy and mechanisms of action in vivo, each mouse was inoculated subcutaneously at the right lower flank region with tumor cells (1×10^5−2×10^6 depending on the cell lines) in 0.1 ml of PBS with or without metrigel for tumor development. Before commencement of treatment, all animals were weighed and the tumor volumes were measured using a caliper. […]
(§2) Tumor volumes were measured 2-3 times weekly in two dimensions using a caliper, and the volume was expressed in mm^3 using the formula: V=0.5 a×b2 where a and b are the long and short diameters of the tumor, respectively. Tumor weight was measured at study termination. […]
The anti-tumor activity of Compound A and Compound B was assessed firstly in an immune-checkpoint blocker resistant DLBCL syngeneic A20 xenograft mouse model as single agent and in combination. […] Body weights and tumor size were measured three times per week. […] The tolerability was assessed by body weight change. […]

[2] = system: regulatory T cells (Treg); experiment: Analysis of regulatory T cells (Treg) and CD8+ T cells in tumor, spleen and thymus of the A20 model; type: in vivo, mouse
Method: Sampling procedures: organ and tumor tissues were quickly removed and weighted 3 h post the final dose for FACS, IHC (FFPE), and RNA/pretein expression analysis.
The anti-tumor activity of Compound A and Compound B was assessed firstly in an immune-checkpoint blocker resistant DLBCL syngeneic A20 xenograft mouse model as single agent and in combination. A20 cells were inoculated subcutaneously at the right flank of female BALB/c mice for tumor development. The treatment was started when the average tumor size reached about 116 mm^3. Mice were allocated randomly into experimental groups according to their tumor sizes and being treated from day 12 after tumor cell inoculation. Cpd A was dosed at 14 mg/kg and Cpd B at 200 μg/mouse intravenously with the schedule indicated in FIG. 1 A. Treatment groups were: control antibody (ctrl Ab), vehicle control (vehicle), compound A monotherapy (Cpd. A), Cpd. B monotherapy, 3 combination groups with different dosing schedules. Body weights and tumor size were measured three times per week. Tumor growth curve (FIG. 1B), tumor weight at the end of treatment (FIG. 1C) and tumor response (FIG. 1D) were used as anti-tumor activity endpoints. The tolerability was assessed by body weight change. […]

[3] = system: CT26 (KRAS^mut, non-MSI^high) colorectal cancer; experiment: Anti-tumor efficacy in CT26 colorectal cancer syngeneic mouse model; type: in vivo; conditions: monotherapy
Method: as §1, §2
Therefore, the anti-tumor activity of Compound A and Compound B was assessed in the mouse syngeneic CT26 (KRAS^mut, non-MSI^high) colorectal cancer xenograft model as single agent and in combination. […]

## COc1c(OCCCN2CCOCC2)ccc2c1N=C(NC(=O)c1cnc(N)nc1)N1CCN=C21 [Cpd A, 2-amino-N-[7-methoxy-8-(3-morpholin-4-ylpropoxy)-2,3-dihydroimidazo[1,2-c]quinazolin-5-yl]pyrimidine-5-carboxamide dihydrochloride]
[1]
  relative tumor growth inhibition (TGI %): 78%
[2]; A20 model, thymus and spleen
  effect on Treg in thymus and spleen: minimal or no effects
[2]; A20 tumors, Treg among CD4+ T cells
  effect on Treg population in tumors: specifically reduce the Treg population in tumors
[3]
  TGI: 71%
